Assay results as given in patent US20250059231A1, “Protease inhibitors” (priority 2021, published 2025).
“Also recorded” adds a separate entry of the source. Where a SMILES comes first, the peptide text is derived from it. The star is where a group is joined. Palmitoyl = CCCCCCCCCCCCCCCC(=O)*

What was measured:
ZIKA protease = target: T1, ZIKA protease (Zika virus, UniProt Q32ZE1); assay: biochemical; details: for inhibition at 1 µM / inhibition at 50 µM: read-out: inhibition of ZIKV
T1 construct: a trypsin-like serine protease domain in the N-terminal region of the flaviviral NS3 proteins
T1 sequence (Q32ZE1 1499-1676): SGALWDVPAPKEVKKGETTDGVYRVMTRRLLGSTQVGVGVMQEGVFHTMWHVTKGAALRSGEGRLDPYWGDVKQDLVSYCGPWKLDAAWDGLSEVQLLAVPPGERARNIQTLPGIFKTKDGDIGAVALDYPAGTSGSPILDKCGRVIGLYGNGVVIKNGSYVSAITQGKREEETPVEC
T1 sequence (Q32ZE1 1421-1460): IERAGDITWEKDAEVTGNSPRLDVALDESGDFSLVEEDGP

[1] = test system: Dengue virus 2 (DENV2, ATCC VR-1584); assay: DENV2 infection in AG129 mice: clinical signs, body and spleen weights; assay type: in vivo; details: for Body weights of mice at the end of the study (Mean ± SD): b.i.d, n = 9; for general clinical signs of treated animals: 20 and 10 mg/kg
Method: The purpose of this study was to determine the efficacy of the compounds on Dengue virus 2 (DENV2, ATCC® VR-1584™) infection in AG129 mice.
Six groups of AG129 mice, 6-8 weeks old, with 9 mice per group were used to test compounds according to table 3.1.1. Animal room environment was monitored for temperature and relative humidity twice per day. The temperature range was 22° C.±3° C. and humidity range was 30-70%. The animals were provided with 12 hours light and 12 hours darkness. Feed and drinking water was provided ad libitum. Compounds 43 and 113 were tested.
C6/36 (ATCC(CRL-1660) cell lines were grown in RPMI 1640 medium (Gibco/HiMedia) plus 5% fetal bovine serum at 28° C. Dengue virus type 2 (ATCC®VR-1584™) New Guinea C(NGC, DENV2) was passaged in BHK-21 cell cultures to make sufficient stocks for assay. Virus titer was determined by TCID50 method using BHK-21 cells.
Twenty-four hours post treatment (Day 0), animals were injected intraperitoneally (IP) with 0.2 ml of virus suspension (˜5×10^7/animal).
The vehicle for tested compounds was 5% DMSO+95% (20%) hydroxypropylcyclodextrin. […] Formulations were prepared daily immediately before dosing.
Administration of compounds and vehicle to animals started twenty four hours before infection (Day −1). Animals were treated daily (From Day-1 to day 4) as per the experimental design shown below in table 3.1.5. Animals were monitored for general clinical signs, morbidity and mortality. Body weights were measured daily.
Animals were sacrificed on day 5 post infection with Isoflurane followed by an overdose of CO2. Spleens were excised, measured and weighed.
The Mean±SD Log10PFU/ml, relative Mean±SD spleen weight, Mean±SD biomarker concentrations were estimated in each group. Significant differences between group means and control were analyzed by one-way ANOVA, followed by a Dunnett's multiple comparison test, using GraphPad Prism 5 at 95% confidence levels. A p value of <0.05 was considered as significant.

dengue virus = assay: In vivo assay using subcutaneous vs intraperitoneal administration, plaque assay in mouse plasma; parameters: species or system mice; details: for therapeutic efficacy by plaque assays in mouse plasma through the treatment period / plaque assay in mouse plasma: 20 mg/kg (5h post infection); for efficacy against dengue virus infection after subcutaneous administration: subcutaneous vs other routes of administration, mice
Method: FIG. 5B-viral load (plaque assay) in plasma of mice following treatment with vehicle or with compound 113 (20 mg/kg, b.i.d. IP and SC starting at 5h post-infection). Error bars are Mean±SEM.
BHK-21 cells were cultured to approximately 80% confluency in 24-well plates (NUNC, NY, USA). Plasma samples were 10-fold serially diluted in RPMI 1640 (GIBCO). BHK-21 monolayers were infected with 100 μl of each virus dilution. After incubation at 37° C. and 5% CO2 atmosphere for one hour with rocking at 15 min intervals, the medium was decanted and 1 ml of 1% (w/v)carboxymethyl cellulose in RPMI supplemented with 2% FCS was added to each well. After four days incubation at 37° C. in 5% CO2, the cells were fixed with 4% paraformaldehyde and stained for 30 min with […] of 1% crystal violet dissolved in 37% formaldehyde. After thorough rinsing with water, plates were dried and the plaques were scored visually.
These studies were largely performed as in Example 17, with a difference found in the administration of compounds of the invention. […] In this example the compounds of the invention are administered using subcutaneous administration, and compound 113 was used as exemplary for compounds according to the invention.
Results are shown in the table below, where compounds were used at 20 mg/kg (5h post infection). Antiviral activity is much improved after subcutaneous administration, with a longer lasting effect.

Row | SMILES | EC50 (West Nile virus) | IC50 (ZIKA protease) | inhibition at 1 µM (ZIKA protease) | inhibition at 50 µM (ZIKA protease) | Body weights of mice at the end of the study (Mean ± SD) ([1]; 10 mg/kg I.P) | Body weights of mice at the end of the study (Mean ± SD) ([1]; 20 mg/kg I.P) | general clinical signs of treated animals [1] | therapeutic efficacy by plaque assays in mouse plasma through the treatment period (dengue virus) | plaque assay in mouse plasma (dengue virus; Day 3, IP) | plaque assay in mouse plasma (dengue virus; Day 3, SC) | plaque assay in mouse plasma (dengue virus; Day 4, IP) | plaque assay in mouse plasma (dengue virus; Day 4, SC) | efficacy against dengue virus infection after subcutaneous administration (dengue virus)
1 | CCCCCCCCCCCCCCCC(=O)N[C@@H](CCCCN)CC(=O)N[C@@H](C)C(=O)N[C@@H](C)CC(=O)N[C@H](CCCCN)C(N)=O (stereo in doubt) [compound 113] | ≤ 25 µM | ≤ 25 µM | ≥ 10% | ≥ 65% | 17.22 ± 1.39 g | 16.89 ± 1.36 g | apparently normal | good therapeutic efficacy | 4.70 ± 0.75 | 3.58 ± 0.34 | 4.23 ± 0.52 | 3.26 ± 0.49 | great efficacy; also recorded: improved efficacy
2 | CCCCCCCCCCCCCCCC(=O)N[C@@H](CCCNC(=N)N)C(=O)N[C@@H](CCC(N)=O)C(=O)N[C@@H](Cc1ccccc1)C(N)=O [compound 43] (Palmitoyl-Arg-Gln-Phe-NH2) | ≤ 25 µM | ≤ 25 µM | ≥ 10% | ≥ 65% | 18.78 ± 2.28 g | 18.11 ± 1.45 g | apparently normal | good therapeutic efficacy | 4.32 ± 0.45 | 3.43 ± 0.304 | 4.38 ± 0.41 | 3.34 ± 0.40 | great efficacy
